Data as given in patent US10144736B2 (Gilead Sciences, Inc., priority 2006, dated 2018).
Where two headings read alike, the source gives them in different places.

Key:
[1] = system: HCV replicon; assay: Anti-HCV replicon assay (EC50, luciferase readout); assay type: cell-based, hepatitis C virus; conditions: human hepatoma Huh-7 cell line harbouring a HCV replicon, 3 days incubation, luciferase signal
Protocol: (§1) The anti HCV activity of specifically substituted pteridine derivatives was tested in a human hepatoma Huh-7 cell line harbouring a HCV replicon. The assay comprised the following steps:
(§2) Step 1: compound preparation and serial dilution involved the following alternatives, depending upon the water solubility of pteridine derivative being tested:
(§3) • 1. with respect to water soluble pteridine derivatives, 500 μL of solution in cell media (DMEM, 10% FBS, P/S, L-Glutamine) was prepared with a concentration that is twice the concentration of the starting final serial dilution concentration. 150 μL of the solution was added to the pre-specified wells in column 1 of a 96-well cell culture plate (PerkinElmer, white plate, cat. #6005181, for EC50 assay; black plate, cat. #6005182 for CC50 assay). The rest of the plate, i.e. columns 2-12, was filled with 100 μL of cell media. The plate was then placed on a Precision 2000 Workstation in order to start serial dilution. Pteridine compounds were diluted three times each step from column 1 to column 10. Column 11 was used as a blank control (no pteridine compound added). • 2. With respect to poorly water soluble pteridine derivatives, DMSO was used as a solvent, and serial dilution was performed in 50% DMSO in water, in a 384-well plate. A solution containing the relevant compound at 100-fold the concentration of the starting final serial dilution concentration was prepared in 50% DMSO in water and added to the pre-specified wells in column 1 of a polypropylene 384-well plate. This plate was then placed on a Precision 2000 Workstation in order to start serial dilution. After serial dilution, 2 μL of the solution was transferred from the 384-well plate to a 96-well cell culture plate containing 100 μL of cell media on a Biomek FX Workstation. The DMSO concentration in the final assay condition was 0.5% after cells have been added to the plate and the total volume in each well was brought to 200 μL. Step 2: to each well of the serial dilution plate prepared in step 1, 100 μL of cell media containing 6000 suspended Huh-7 HCV replicon cells was added with a Multidrop workstation. Plates were incubated for 3 days at 37° C. with 5% CO2. Step 3: detection: • 1) with respect to the EC50 assay, the media in a 96-well cell culture plate was aspirated with a Biotek EL405 plate-washer. A volume of 200 μL of a solution containing a 1:1 mixture of a cell-lysis buffer (commercially available from Promega, Luciferase Cell Culture Lysis 5X Reagent, cat. #E1531) and a luciferase substrate solution (commercially available from Promega, Luciferase Assay, cat. #E4550) was added to each well of the plate with Multidrop. The plate was incubated for 30 minutes at room temperature before the luminescence signal was measured with a TopCount plate-reader. • 2) with respect to the CC50 assay, 100 μL of a pre-mixed CellTiter-Glo (commercially available from Promega, cat. #G7572) solution was added directly to the cell culture in each well of the plate and the luminescence signal was measured with a TopCount plate-reader after 10 minutes of incubation at room temperature.
(§4) Results are expressed by the following data: • the 50% effective concentration (EC50), i.e. the concentration that protects 50% of the cell monolayer from virus-induced cythopathic effect. • the 50% cytostatic concentration (CC50), i.e. the concentration that results in 50% inhibition of cell growth.

[2] = CC50 assay (CellTiter-Glo) in Huh-7 HCV replicon cells; assay type: cell-based, human; conditions: human, 3 days incubation, 50% cytostatic concentration
Protocol: as §1, §2, §3, §4

[3] = Hepatitis C virus, 72 h, read-out: EC50

Structure (SMILES)	EC50 [1, 3]	CC50 at 3 days [2]	EC50 ([1]; Hepatitis C virus, Huh-7, 72 h)	EC50 [1]
CCOc1nc(N)nc2ncc(-c3ccc(OC)c(F)c3)nc12 [Example 3, 4-ethoxy-6-(3-fluoro-4-methoxyphenyl)pteridin-2-ylamine]	1 to 10 µM	> 20 µM		
CCOc1nc(N)nc2ncc(-c3ccc(Cl)cc3)nc12 [Example 27, 6-(4-chlorophenyl)-4-ethoxypteridin-2-ylamine]		< 10 µM	0.3 to 1 µM	
CCOc1nc(N)nc2ncc(-c3ccc(S(C)(=O)=O)cc3)nc12 [Example 30, 4-ethoxy-6-(4-(methylsulfonyl)phenyl)pteridin-2-ylamine]	1 to 10 µM	> 20 µM		
CCOc1nc(N)nc2ncc(-c3ccncc3)nc12 [Example 31, 4-ethoxy-6-(pyridin-4-yl)pteridin-2-ylamine]	0.3 to 1 µM	< 10 µM		
CCOc1nc(N)nc2ncc(-c3ccc(C)cc3)nc12 [Example 54, 4-ethoxy-6-p-tolylpteridin-2-ylamine]	1 to 10 µM	> 20 µM		
CCOc1nc(N)nc2ncc(-c3ccc(O)cc3)nc12 [Example 57, 4-(2-amino-4-ethoxypteridin-6-yl)phenol]		> 20 µM	1 to 10 µM	
CCOc1nc(N)nc2ncc(-c3ccc(N)cc3)nc12 [Example 69, 6-(4-aminophenyl)-4-ethoxypteridin-2-ylamine]		> 20 µM	1 to 10 µM	
Nc1nc(N2CCOCC2)c2nc(-c3ccccc3Cl)cnc2n1 [Example 78, 6-(2-chlorophenyl)-4-morpholinopteridin-2-ylamine]		< 10 µM	0.3 to 1 µM	
Nc1nc(N2CCOCC2)c2nc(-c3ccccc3C(F)(F)F)cnc2n1 [Example 79, 4-morpholino-6-(2-(trifluoromethyl)phenyl)pteridin-2-ylamine]	0.3 to 1 µM	< 10 µM		
COc1ccccc1-c1cnc2nc(N)nc(N3CCOCC3)c2n1 [Example 80, 6-(2-methoxyphenyl)-4-morpholinopteridin-2-ylamine]	0.3 to 1 µM	> 20 µM		
Nc1nc(N2CCOCC2)c2nc(-c3cccc(Cl)c3)cnc2n1 [Example 82, 6-(3-chlorophenyl)-4-morpholinopteridin-2-ylamine]		> 20 µM	0.3 to 1 µM	
Nc1nc(N2CCOCC2)c2nc(-c3cccc(OC(F)(F)F)c3)cnc2n1 [Example 84, 4-morpholino-6-(3-(trifluoromethoxy)phenyl)-pteridin-2-ylamine]	< 0.3 µM	< 10 µM		
N#Cc1cccc(-c2cnc3nc(N)nc(N4CCOCC4)c3n2)c1 [Example 85, 3-(2-amino-4-morpholinopteridin-6-yl)benzonitrile]	1 to 10 µM	> 20 µM		
Nc1nc(N2CCOCC2)c2nc(-c3ccc(CN4CCOCC4)cc3)cnc2n1 [Example 89, 4-morpholino-6-(4-(morpholino-methyl)phenyl)pteridin-2-ylamine]	1 to 10 µM	> 20 µM		
Nc1nc(N2CCOCC2)c2nc(-c3cccc(F)c3F)cnc2n1 [Example 90, 6-(2,3-difluorophenyl)-4-morpholinopteridin-2-ylamine]		> 20 µM		0.3 to 1 µM
Nc1nc(N2CCOCC2)c2nc(-c3cccc(Cl)c3Cl)cnc2n1 [Example 91, 6-(2,3-dichlorophenyl)-4-morpholinopteridin-2-amine]		> 20 µM	0.3 to 1 µM	
Nc1nc(N2CCOCC2)c2nc(-c3ccc(F)cc3Cl)cnc2n1 [Example 92, 6-(2-chloro-4-fluorophenyl)-4-morpholinopteridin-2-ylamine]		10 to 20 µM	0.3 to 1 µM	
Nc1nc(N2CCOCC2)c2nc(-c3ccc(C(F)(F)F)cc3C(F)(F)F)cnc2n1 [Example 93, 6-(2,4-bis(trifluoromethyl)phenyl)-4-morpholinopteridin-2-ylamine]	1 to 10 µM	10 to 20 µM		
Nc1nc(N2CCOCC2)c2nc(-c3c(Cl)cccc3Cl)cnc2n1 [Example 95, 6-(2,6-dichlorophenyl)-4-morpholinopteridin-2-ylamine]		10 to 20 µM	1 to 10 µM	
